Test results published in patent US20210308289A1, “INACTIVATION OF HIGHLY RESISTANT INFECTIOUS MICROBES AND PROTEINS WITH UNBUFFERED HYPOHALOUS ACID COMPOSITIONS” (BRIOTECH, INC., priority 2016, published 2021).

Key:
[1] = Application to human skin and mucous membranes; settings: freshly prepared from HOCl containing 200 ppm of Cl
[2] = in solution; cited from earlier work
infectious proteins = assay type: biochemical
[3] = test system: spores of Bacillus subtilis; assay: Inactivation of Bacillus subtilis spores by HOBr and HOCl; assay type: cell-based

Compound: OBr [HOBr, hypobromous acid]
- adverse effects on epithelial surfaces [1]: without any indication of adverse effects
- pKa [2]: higher than HOCl
- inactivation of infectious proteins (infectious proteins): comparable levels to those achieved using HOCl
- LRV ([3]; HOBr approximately 25 ppm, 20 seconds): 6

Compound: OCl [HOCl, hypochlorous acid]
- pKa [2]: about 7.5
- effect on Bacillus spores ([3]; HOCl 25 ppm, 20 seconds of contact): no detectable effect
- LRV ([3]; HOCl 230 ppm, 20 seconds): 6
- LRVs ([3]; HOCl below 230 ppm, 20 seconds): 2-4
